# Test results: US20160367623A1, “AGONISTS OF GUANYLATE CYCLASE USEFUL FOR THE TREATMENT OF GASTROINTESTINAL DISORDERS, INFLAMMATION, CANCER AND OTHER DISORDERS” (priority 2015, published 2016)
# Bridge positions count the residues as written; N and C are the ends. Ends that are not written are not given here.
# System: patients with chronic idiopathic constipation (CIC)
# Assay: Second phase 3 CIC trial: change from baseline in stool consistency (BSFS)
# Format: in vivo, human
# [1] = 6 mg, Week 9, ITT Population-Excluding Duplicate Patients
# [2] = 6 mg, Week 10, All Randomized (includes Duplicate Patients)
# [3] = 6 mg, Week 10, ITT Population-Excluding Duplicate Patients
# [4] = 6 mg, Week 11, All Randomized (includes Duplicate Patients)
# [5] = 6 mg, Week 11, ITT Population-Excluding Duplicate Patients
# [6] = 6 mg, Week 12, All Randomized (includes Duplicate Patients)
# [7] = 6 mg, Week 12, ITT Population-Excluding Duplicate Patients
# [8] = 6 mg, overall average estimate across the 12-week treatment period, All Randomized (includes Duplicate Patients)
# [9] = 6 mg, overall average estimate across the 12-week treatment period, ITT Population
# [10] = 6 mg, overall average estimate across the 12-week treatment period, ITT Population-Excluding Duplicate Patients
substance,measurement,setting,value
"Asn^1-Asp^2-Glu^3-Cys^4-Glu^5-Leu^6-Cys^7-Val^8-Asn^9-Val^10-Ala^11-Cys^12-Thr^13-Gly^14-Cys^15-Leu^16 (NDECELCVNVACTGCL; disulfide 4-12, 7-15) [Plecanatide, uroguanylin analogue, guanylate cyclase-C agonist; (C4:C12, C7:C15) bicycle peptide]","Change from Baseline in Stool Consistency, LS Mean (SE)","6 mg, Week 9, All Randomized (includes Duplicate Patients)",1.54 (0.073)
same,"Change from Baseline in Stool Consistency, Difference from Placebo","6 mg, Week 9, ITT Population",0.68
same,"Change from Baseline in Stool Consistency, LS Mean (SE)","6 mg, Week 9, ITT Population",1.57 (0.075)
same,"Change from Baseline in Stool Consistency, Mean (SD)","6 mg, Week 9, ITT Population",1.62 (1.507)
same,"Change from Baseline in Stool Consistency, Difference from Placebo",[1],0.68
same,"Change from Baseline in Stool Consistency, LS Mean (SE)",[1],1.59 (0.075)
same,"Change from Baseline in Stool Consistency, Mean (SD)",[1],1.63 (1.510)
same,"Change from Baseline in Stool Consistency, Difference from Placebo",[2],0.62
same,"Change from Baseline in Stool Consistency, LS Mean (SE)",[2],1.52 (0.073)
same,"Change from Baseline in Stool Consistency, Difference from Placebo","6 mg, Week 10, ITT Population",0.62
same,"Change from Baseline in Stool Consistency, LS Mean (SE)","6 mg, Week 10, ITT Population",1.55 (0.075)
same,"Change from Baseline in Stool Consistency, Mean (SD)","6 mg, Week 10, ITT Population",1.59 (1.432)
same,"Change from Baseline in Stool Consistency, Difference from Placebo",[3],0.63
same,"Change from Baseline in Stool Consistency, LS Mean (SE)",[3],1.57 (0.075)
same,"Change from Baseline in Stool Consistency, Mean (SD)",[3],1.60 (1.437)
same,"Change from Baseline in Stool Consistency, Difference from Placebo",[4],0.58
same,"Change from Baseline in Stool Consistency, LS Mean (SE)",[4],1.50 (0.073)
same,"Change from Baseline in Stool Consistency, Difference from Placebo","6 mg, Week 11, ITT Population",0.57
same,"Change from Baseline in Stool Consistency, LS Mean (SE)","6 mg, Week 11, ITT Population",1.53 (0.075)
same,"Change from Baseline in Stool Consistency, Mean (SD)","6 mg, Week 11, ITT Population",1.58 (1.499)
same,"Change from Baseline in Stool Consistency, Difference from Placebo",[5],0.59
same,"Change from Baseline in Stool Consistency, LS Mean (SE)",[5],1.55 (0.076)
same,"Change from Baseline in Stool Consistency, Mean (SD)",[5],1.59 (1.504)
same,"Change from Baseline in Stool Consistency, Difference from Placebo",[6],0.48
same,"Change from Baseline in Stool Consistency, LS Mean (SE)",[6],1.48 (0.074)
same,"Change from Baseline in Stool Consistency, Difference from Placebo","6 mg, Week 12, ITT Population",0.49
same,"Change from Baseline in Stool Consistency, LS Mean (SE)","6 mg, Week 12, ITT Population",1.51 (0.076)
same,"Change from Baseline in Stool Consistency, Mean (SD)","6 mg, Week 12, ITT Population",1.58 (1.487)
same,"Change from Baseline in Stool Consistency, Difference from Placebo",[7],0.51
same,"Change from Baseline in Stool Consistency, LS Mean (SE)",[7],1.53 (0.076)
same,"Change from Baseline in Stool Consistency, Mean (SD)",[7],1.59 (1.492)
same,"Change from Baseline in Stool Consistency, Difference from Placebo",[8],0.63
same,"Change from Baseline in Stool Consistency, LS Mean (SE)",[8],1.47 (0.059)
same,"Change from Baseline in Stool Consistency, Difference from Placebo",[9],0.63
same,"Change from Baseline in Stool Consistency, LS Mean (SE)",[9],1.50 (0.061)
same,"Change from Baseline in Stool Consistency, Difference from Placebo",[10],0.64
same,"Change from Baseline in Stool Consistency, LS Mean (SE)",[10],1.52 (0.061)
same,"Change from Baseline in Stool Consistency, Mean (SD)","Active Combined, Post-Treatment Week 13, All Randomized (includes Duplicate Patients)",1.15 (1.387)
same,"Change from Baseline in Stool Consistency, Mean (SD)","Active Combined, Post-Treatment Week 13, ITT Population",1.14 (1.392)
same,"Change from Baseline in Stool Consistency, Mean (SD)","Active Combined, Post-Treatment Week 13, ITT Population-Excluding Duplicate Patients",1.14 (1.397)
same,"Change from Baseline in Stool Consistency, Mean (SD)","Active Combined, Post-Treatment Week 14, All Randomized (includes Duplicate Patients)",1.12 (1.394)
same,"Change from Baseline in Stool Consistency, Mean (SD)","Active Combined, Post-Treatment Week 14, ITT Population",1.12 (1.379)
same,"Change from Baseline in Stool Consistency, Mean (SD)","Active Combined, Post-Treatment Week 14, ITT Population-Excluding Duplicate Patients",1.12 (1.384)
same,"Change from Baseline in Stool Consistency, Mean (SD)","Active Combined, Week 1, All Randomized (includes Duplicate Patients)",1.41 (1.482)
same,"Change from Baseline in Stool Consistency, Mean (SD)","Active Combined, Week 1, ITT Population",1.42 (1.490)
same,"Change from Baseline in Stool Consistency, Mean (SD)","Active Combined, Week 1, ITT Population-Excluding Duplicate Patients",1.43 (1.482)
same,"Change from Baseline in Stool Consistency, Mean (SD)","Active Combined, Week 2, All Randomized (includes Duplicate Patients)",1.41 (1.563)
same,"Change from Baseline in Stool Consistency, Mean (SD)","Active Combined, Week 2, ITT Population",1.42 (1.571)
same,"Change from Baseline in Stool Consistency, Mean (SD)","Active Combined, Week 2, ITT Population-Excluding Duplicate Patients",1.43 (1.570)
same,"Change from Baseline in Stool Consistency, Mean (SD)","Active Combined, Week 3, All Randomized (includes Duplicate Patients)",1.48 (1.526)
same,"Change from Baseline in Stool Consistency, Mean (SD)","Active Combined, Week 3, ITT Population",1.49 (1.527)
same,"Change from Baseline in Stool Consistency, Mean (SD)","Active Combined, Week 3, ITT Population-Excluding Duplicate Patients",1.49 (1.532)
same,"Change from Baseline in Stool Consistency, Mean (SD)","Active Combined, Week 4, ITT Population",1.48 (1.550)
same,"Change from Baseline in Stool Consistency, Mean (SD)","Active Combined, Week 4, ITT Population-Excluding Duplicate Patients",1.49 (1.557)
same,"Change from Baseline in Stool Consistency, Mean (SD)","Active Combined, Week 5, ITT Population",1.63 (1.530)
same,"Change from Baseline in Stool Consistency, Mean (SD)","Active Combined, Week 5, ITT Population-Excluding Duplicate Patients",1.64 (1.535)
same,"Change from Baseline in Stool Consistency, Mean (SD)","Active Combined, Week 6, ITT Population",1.62 (1.525)
same,"Change from Baseline in Stool Consistency, Mean (SD)","Active Combined, Week 6, ITT Population-Excluding Duplicate Patients",1.62 (1.524)
same,"Change from Baseline in Stool Consistency, Mean (SD)","Active Combined, Week 7, ITT Population",1.57 (1.494)
same,"Change from Baseline in Stool Consistency, Mean (SD)","Active Combined, Week 7, ITT Population-Excluding Duplicate Patients",1.58 (1.498)
same,"Change from Baseline in Stool Consistency, Mean (SD)","Active Combined, Week 8, ITT Population",1.62 (1.520)
same,"Change from Baseline in Stool Consistency, Mean (SD)","Active Combined, Week 8, ITT Population-Excluding Duplicate Patients",1.62 (1.523)
same,"Change from Baseline in Stool Consistency, Mean (SD)","Active Combined, Week 9, ITT Population",1.65 (1.487)
same,"Change from Baseline in Stool Consistency, Mean (SD)","Active Combined, Week 9, ITT Population-Excluding Duplicate Patients",1.65 (1.489)
same,"Change from Baseline in Stool Consistency, Mean (SD)","Active Combined, Week 10, ITT Population",1.62 (1.485)
same,"Change from Baseline in Stool Consistency, Mean (SD)","Active Combined, Week 10, ITT Population-Excluding Duplicate Patients",1.62 (1.491)
same,"Change from Baseline in Stool Consistency, Mean (SD)","Active Combined, Week 11, ITT Population",1.58 (1.547)
same,"Change from Baseline in Stool Consistency, Mean (SD)","Active Combined, Week 11, ITT Population-Excluding Duplicate Patients",1.59 (1.548)
same,"Change from Baseline in Stool Consistency, Mean (SD)","Active Combined, Week 12, ITT Population",1.64 (1.483)
same,"Change from Baseline in Stool Consistency, Mean (SD)","Active Combined, Week 12, ITT Population-Excluding Duplicate Patients",1.64 (1.484)
